The text below walks through data of ChEMBL document CHEMBL5032537, “Synthetic development of sugar amino acid oligomers towards novel podophyllotoxin analogues” (Bioorg Med Chem, 2021).

One test has as its system M21. Put plainly: Antiproliferative activity against human M21 cells assessed as inhibition of cell proliferation measured after 48 hrs by SRB assay. The note with it: M21, 48 h. It counts as functional, cell-based.
The next test concerns HT-29. Put plainly: Antiproliferative activity against human HT-29 cells assessed as inhibition of cell proliferation measured after 48 hrs by SRB assay. It counts as functional, cell-based. The note with it: HT-29, 48 h.
Another test concerns HaCaT. Put plainly: Antiproliferative activity against human HaCaT cells assessed as inhibition of cell proliferation measured after 48 hrs by SRB assay. It is filed as cell-based.
A further test relates to HT-1080. In words: Antiproliferative activity against human HT-1080 cells assessed as inhibition of cell proliferation measured after 48 hrs by SRB assay. It is filed as functional, cell-based. The note with it: HT-1080, 48 h.

As for `COc1cc([C@@H]2c3cc4c(cc3[C@@H](N=[N+]=[N-])[C@H]3COC(=O)[C@H]23)OCO4)cc(OC)c1O`, the half-inhibitory concentration (IC50) in the test with M21 stood at 0.6 µM; in the test with HT-29, 0.6 µM; in the test with HaCaT it was 0.5 µM; in the test with HT-1080, 0.6 µM.

For `COc1cc([C@@H]2c3cc4c(cc3[C@@H](n3cc(CNC(=O)[C@@H]5O[C@H](OC)[C@H](O)[C@@H](O)[C@@H]5O)nn3)[C@H]3COC(=O)[C@H]23)OCO4)cc(OC)c1O`, the half-maximal inhibitory concentration (IC50) with M21, with HT-29, in the test with HaCaT and with HT-1080 was over 100 µM each time.

As to `COc1cc([C@@H]2c3cc4c(cc3[C@@H](n3cc(CNC(=O)[C@@H]5O[C@H](OC)[C@H](N)[C@@H](O)[C@@H]5O)nn3)[C@H]3COC(=O)[C@H]23)OCO4)cc(OC)c1O`, the IC50 in the test with M21, in the test with HT-29, with HaCaT and in the test on HT-1080 was over 100 µM each time.

As to `COc1cc([C@@H]2c3cc4c(cc3[C@@H](n3cc(CNC(=O)[C@H]5O[C@H](OC)[C@H](NC(=O)OC(C)(C)C)[C@@H](O)[C@@H]5O)nn3)[C@H]3COC(=O)[C@H]23)OCO4)cc(OC)c1O`, the half-maximal inhibitory concentration (IC50) with M21, with HT-29, in the test with HaCaT and with HT-1080 was over 1 µM in each case.

For `COc1cc([C@@H]2c3cc4c(cc3[C@@H](n3cc(CNC(=O)[C@@H]5O[C@H](OC)[C@H](NC(C)=O)[C@@H](O)[C@@H]5O)nn3)[C@H]3COC(=O)[C@H]23)OCO4)cc(OC)c1O`, the IC50 with M21, in the test on HT-29, in the test on HaCaT and in the test on HT-1080 was over 100 µM in each case.

On to `COc1cc([C@@H]2c3cc4c(cc3[C@@H](O)[C@H]3COC(=O)[C@H]23)OCO4)cc(OC)c1O` [4'-DEMETHYLEPIPODOPHYLLOTOXIN], for which the concentration for half-maximal inhibition (IC50) with M21 was 0.17 µM; with HT-29, 0.15 µM; with HaCaT, 0.16 µM; with HT-1080, 0.11 µM.

As for `COc1ccc(/C=C\c2cc(OC)c(OC)c(OC)c2)cc1O` [COMBRETASTATIN A4], the IC50 in the test with M21 is 0.0019 µM; with HT-29 it was over 1 µM; with HaCaT, 0.0034 µM; in the test with HT-1080, 0.0026 µM.

Regarding `COc1cc([C@@H]2c3cc4c(cc3[C@@H](O[C@@H]3O[C@@H]5CO[C@@H](C)O[C@H]5[C@H](O)[C@H]3O)[C@H]3COC(=O)[C@H]23)OCO4)cc(OC)c1O` [ETOPOSIDE], the IC50 in the test with M21 came out at 0.2 µM; in the test with HT-29, 9 µM; in the test on HaCaT it was 6 µM; in the test on HT-1080, 2 µM.
